In patent US6878689B2, “Preventives or remedies for heart failure” (Kaken Pharmaceutical Co., Ltd., priority 2000, dated 2005):
Where a SMILES comes first, the peptide text is derived from it. Where no end group is shown, it is not given here. [ ]: non-standard residue; d: D form. dTrp(2-Me) = Cc1[nH]c2ccccc2c1C[C@@H](N)C(=O)O

Test system: papillary muscle of guinea-pig
Test: Myocardial contractility (developed tension) in isolated, electrically driven papillary muscle of guinea-pig
Conditions: for change in developed tension: isolated guinea-pig papillary muscle, 1 Hz; for tension development (positive inotropic action) vs baseline: cumulative 10, 30 and 100 μM, n=5, FIG. 1
Procedure: [Test Example 1] Myocardial Contractility Enhancing Action of Pralmorelin in the Papillary Muscle of Guinea-Pig
The direct effect of pralmorelin on myocardial contractility was evaluated using the isolated cardiac muscle of guinea-pigs according to the standard method for evaluating myocardial contractility. • 1. Materials and Experimental Method • 1) Animal Used
Male Hartley guinea-pigs (body weight, 301-350 g; Japan SLC) were purchased. The animals were accommodated to an environment at a temperature of 23±2° C. and a humidity of 55±15% under 12-hr light/dark cycles while they were allowed to eat and drink water ad libitum until they weighed 360-480 g. Each test substance was tested on a group of five animals. • 2) Reagents Used
The test substances were pralmorelin dihydrochloride (KP-102), representatives of growth hormone secretagogues such as hexarelin, ghrelin and ibutamorelin methanesulfonate (the last being hereunder referred to as MK-0677) (which were prepared by the method described in JP 6-263737 A (kokai)), as well as a recombinant human growth hormone (Sumitomo Pharmaceutical) and amrinone (Sigma) which is a known therapeutic of acute heart failure. KP-102, hexarelin and MK-0677 were dissolved in distilled water. Ghrelin was dissolved in physiological saline. Amrinone was first dissolved in dimethyl sulfoxide and then diluted with physiological saline. The growth hormone was dissolved in a dedicated solubilizer (0.3 w/v % metacresol and 3.9 w/v % D-mannitol). None of the test substance solutions should be added in an amount exceeding 1 w/v %. All reagents other than the test substances were guaranteed products of Nacalai Tesque. • 3) Preparing Specimens of the Isolated Papillary Muscle
The guinea-pigs were stunned with a blow to the back of their head; thereafter, the carotid artery was incised and the animals were exsanguinated to death. The chest was opened, the blood vessels in the upper part of the heart were cut and the heart was removed. The heart was immediately transferred into a Krebs-Henseleit (K-H) nutrient solution (NaCl, 118.0 mM; KCl, 4.7 mM; CaCl2. 2H2O, 1.0 mM; KH2PO4, 1.2 mM; MgSO4.7H2O, 1.2 mM; NaHCO3, 25.0 mM; glucose, 11.0 mM) that had been fully aerated with 95% O2-5% CO2. The heart was fixed on a rubber-lined Petri dish with needles such that its front face was seen. The ventricular wall of the upper right ventricle (toward the atrium) was excised transversely along the atrium, then excised longitudinally along the interventricular septum so that the ventricular wall was opened to expose the right ventricular papillary muscle. Subsequently, the entire surface of the left ventricle was cut open from the aorta (down) to the apex and the anterior wall of the left ventricle was opened wide, to both right and left, and fixed to expose the papillary muscle of the left ventricle. The tricupsid or mitral valve was cut off from the ventricle and the papillary muscle was cut off at the base to prepare a specimen of papillary muscle. The base of the specimen was fixed to field stimulating electrodes in an organ bath filled with 15 mL of the nutrient solution. The tendinous cord adhering to the valve was tied up with a thread and connected to an FD pickup (TB-612T, Nihon Kohden). A resting tension of 0.5 g was loaded and the papillary muscle was driven with an electric stimulator (SEN-3201, Nihon Kohden) at a frequency of 1 Hz by pulses of 20-ms duration and at a voltage intensity about 1.2 times the threshold. After an equilibration period of about 1 hr, KP-102, hexarelin and amrinone were each applied cumulatively up to amounts of 10, 30 and 100 μM. After examination of the changes in inotropic action due to the application of the test substances, 12.5 mM of CaCl2 was added and the maximum tension that was developed by each specimen was obtained. […]

## CC(C)(N)C(=O)N[C@H](COCc1ccccc1)C(=O)N1CCC2(CC1)CN(S(C)(=O)=O)c1ccccc12 [MK-0677, ibutamorelin methanesulfonate]
100 μM
  change in developed tension: no changes in the developed tension

## Nc1cc(-c2ccncc2)c[nH]c1=O [amrinone]
  tension development (positive inotropic action) vs baseline: increased in a concentration-dependent manner

## Cc1[nH]c2ccccc2c1C[C@@H](NC(=O)[C@@H](N)Cc1cnc[nH]1)C(=O)N[C@@H](C)C(=O)N[C@@H](Cc1c[nH]c2ccccc12)C(=O)N[C@H](Cc1ccccc1)C(=O)N[C@@H](CCCCN)C(N)=O [hexarelin] (H-H[dTrp(2-Me)]AW[dF]K-NH2)
  tension development (positive inotropic action) vs baseline: very weak and by no means significant over the baseline value

## ghrelin (GSSFLSPEHQRVQQRKESKKPPAKLQPR; ends and bridges not checked; UniProt Q9UBU3 24-51, looked up) [representative growth hormone secretagogue]
1 μM
  change in developed tension: no changes in the developed tension

## recombinant human growth hormone: recombinant human growth hormone (Sumitomo Pharmaceutical)
0.2 IU/mL
  change in developed tension: no changes in the developed tension
